US20010035503A1, “Method and apparatus for non-invasive detection of angiogenic and anti-angiogenic activity in living tissue” (priority 2000, published 2001)

What was measured:
[1] = test system: C3H murine mammary carcinoma; test: anti-vascular effects by combined LDF and NIRS measurements in mice with tumor transplants; format: in vivo; conditions: for LDF: difference between post- and pre-treatment as percent of pre-treatment value; for LDF / NIRS* / pO2 after treatment % < 5 mm Hg: median, N = 3; for LDF / NIRS* / pO2 after treatment median / pO2 after treatment % < 5 mm Hg: i.p.: FAA 150, CA4B 250, DMX-AA 20, HDZ 5 mg/kg; for tumor blood perfusion estimated by LDF / hemoglobin concentration: in words; for hemoglobin concentration: from NIRS; for NIRS*: reflectance (1/absorbance), increase = decrease in hemoglobin concentration, post- minus pre-treatment as percent of pre-treatment; for pO2 after treatment median: tumor pO2, N = 3; for pO2 after treatment % < 5 mm Hg: tumor pO2 values below 5 mm Hg
Method: Anti-vascular effects on C3H murine mammary carcinoma were determined by combined LDF and NIRS measurements, in mice with tumor transplants using the apparatus shown in FIG. 9.
The three agents DMX-AA, FAA and CA4B are antivascular agents, which by various mechanisms cause collapse of tumor vasculature and consequently a decrease in tumor blood flow and oxygenation. Hydralazine (HDZ) is a well known anti-hypertensive agent that causes peripheral vasodilatation, i.e. a drop in vascular flow resistance leading to an acute decrease in tumor perfusion (a.k.a. the “steal effect”), because of the lack of autoregulation of tumor vessels. Numbers in the table represent differences between post-and pre-treatment measurements expressed as percent of the pre-treatment value. Number of experiments per drug=3.

U87 and MLL tumor lines = test: tumor growth, NIRS recordings and Chalkley counts during continuous anti-angiogenic treatment; format: in vivo, nude mice
Description: The relationship between non-invasive measures of tumor hemoglobin concentration by NIRS and estimates of vessel density by Chalkley counts was examined in seven tumor lines (gliomas: U87, U118, U373; Small Cell Lung Cancer (SCLC): 54A, 54B, DMS79; rat prostate cancer: MLL) on the hind leg of nude mice. Chalkley counts were obtained from CD31 immunostained cryosections. The NIRS absorbance increased with the tumor size until a tumor line specific plateau was reached from tumor sizes of 100-150 mm^3.
We also evaluated the correlation between tumor size and NIRS recordings during untreated growth for all seven tumor lines, and during continuous anti-angiogenic treatment with TNP-470 for two tumor lines, U87 and MLL.

[2] = test system: bFGF induced angiogenic response; test: anti-angiogenic activity in bFGF stimulated animals, LDF and NIRS recordings; format: in vivo, mouse
Method: (§1) The apparatus as shown on FIG. 9 was tested in a mouse model with a controlled angiogenic response induced by local application of an angiogenic agent, basic fibroblast growth factor (bFGF). Parallel experiments were performed with identical setup in order to correlate the sensitivity of near infrared spectroscopy (NIRS) compared to laser doppler flowmetry (LDF) for estimation of angiogenic and anti-angiogenic responses.
(§2) A slow release pellet (Innovative Res.) containing 100 micrograms of bFGF released at a constant rate over 10 days was implanted under the skin at three different locations in the mouse. The angiogenic response to the active substance was evaluated in comparison with placebo pellets. […] Median values and interquartile range is shown.
The ability to detect anti-angiogenic properties of therapeutic agents in these preparations was tested in the same technical settings by comparing treated versus untreated animals.
FIGS. 3A and 3B show the anti-angiogenic activity after treatment with TNP-470 (7 mg/kg q.d.x7, n=13). […] LDF recordings were performed on day 6, whereas NIRS recordings were performed on day 7 after implantation. Median values and interquartile range is shown.

angiogenic response = angiogenic response to bFGF slow release pellet implanted under the skin, LDF and NIRS recordings; format: in vivo, mouse; conditions: pellet with 100 micrograms bFGF vs placebo pellets, p<0.05 vs placebo, p<0.001 vs controls
Method: as §1, §2

[3] = treated vs untreated tumors of similar size, U87 and MLL

Compound | LDF [1] | tumor blood perfusion estimated by LDF [1] | hemoglobin concentration [1] | NIRS* [1] | pO2 after treatment median [1] | pO2 after treatment % < 5 mm Hg [1] | also measured
O=C(O)Cc1cccc2c(=O)cc(-c3ccccc3)oc12 [FAA] | −34% | decrease in perfusion | unchanged hemoglobin concentration | +6% | 1.5 | 69% | –
CO[C@@H]1[C@H](OC(=O)NC(=O)CCl)CC[C@]2(CO2)[C@H]1[C@@]1(C)O[C@@H]1CC=C(C)C [TNP-470] | – | – | – | – | – | – | onset of tumor growth and the growth rate (U87 and MLL tumor lines; continuous treatment, U87 and MLL tumors): significantly retarded; Chalkley counts (U87 and MLL tumor lines; [3]): significantly lower; final NIRS recordings (U87 and MLL tumor lines; [3]): significantly lower; LDF recordings ([2]; compared to untreated bFGF stimulated animals, day 6, TNP-470 7 mg/kg q.d.x7 (p<0.05), dexamethasone 10 mg/kg q.d.x7 (p<0.001)): significantly lower; NIRS recordings ([2]; compared to untreated bFGF stimulated animals, day 7, TNP-470 7 mg/kg q.d.x7 (p<0.05), dexamethasone 10 mg/kg q.d.x7 (p<0.001)): significantly lower; anti-angiogenic activity ([2]; treated versus untreated animals): Significant anti-angiogenic activity
Cc1ccc2c(=O)c3cccc(CC(=O)O)c3oc2c1C [DMX-AA] | −74% | decrease in perfusion | unchanged hemoglobin concentration | +1% | 2.8 | 66% | –
NNc1nncc2ccccc12 [HDZ, Hydralazine] | −93% | – | – | +36% | 1.9 | 85% | –
basic fibroblast growth factor [bFGF] | – | – | – | – | – | – | LDF recordings (angiogenic response; day 6 after implantation): significantly higher than placebo; NIRS recordings (angiogenic response; day 7 after implantation): significantly higher than placebo
